# In patent US8729053B2, “Nuclear factor kappa B pathway inhibitor composition and use of same” (The United States of America, as represented by the …, priority 2008, dated 2014):
# “Also recorded” adds a separate entry of the source. Where a name gives a salt, the structure may show the parent alone.
# How the values were obtained:
# Type in all cases: cell-based
# [1] = system: RelB/p52; assay: Nuclear translocation of RelB/p52 and p100 processing, immunoblot; conditions: HEK293
# Procedure: (§1) To measure endogenous level of several proteins in response to TPA induction and compound I, HEK293 cells were lysed with RIPA buffer (10 mM Tris-HCl pH 7.5, 1 mM EDTA, 0.1% sodium dodecyl sulfate, 0.1% deoxycholate, and protease inhibitor). Whole cell extracts were subjected to immunoblot analysis with the following antibodies: p65 (F-6), p50 (E-10), p52 (C-5), RelB (C-19), IκBα (C-21), PCNA (F-2) were obtained from Santa Cruz Biotechnology (Santa Cruz, Calif.). IKKα, IKKβ, IKKγ, phospho-IκBα, phospho-IKKα/β, phospho-IKKγ, pohospho-Stat3 (Tyr 705 and Ser 727), phospho-p65 (Ser536 and Ser276), phospho-p44/42, phospho-JNKs were purchased from Cell Signaling (Danvers, Mass.), and α-tubulin from Sigma (St. Louis, Mo.). Nuclear and cytoplasmic extracts were prepared with HEK293 cells by NE-PER Nuclear and Cytoplasmic Extraction Reagents (Pierce Biotechnology, Rockford, Ill.) according to the manufacturer's protocol.
# Nuclear translocation of endogenous p65/p50 and RelB/p52 heterodimers were monitored The activation of heterodimers p65/p50 and RelB/p52 occurs by distinct pathways dependent on IKKβ or IKKα catalytic activity. Repression of IKKβ would be expected to influence nuclear translocation of p65/p50 while repression of IKKα would influence processing of p100 to p52. […] However translocation of RelB is only dependent on IKKα for processing of its dimer partner p52 from p100. This processing depends on phosphorylation of p100 by IKKα. The processing of p100 to nuclear p52 was not inhibited by compound I but was proportional to expression levels of p100. Compound I inhibited expression of p100 by an unknown mechanism. […] Instead compound I inhibits IKKβ.
# [2] = system: ERK 1/2 (p42/44); assay: Immunoblot of TPA-induced ERK 1/2 phosphorylation; conditions: 17.0 μM and 8.5 μM pretreatment
# Procedure: as §1
# The selectivity of compound I was evaluated by measuring phosphorylation of proteins involved in the AP-1 induction pathway. AP-1 dependent transcription can be activated by MAP Kinases JNK, ERK 1/2 (p44/42). […] At these concentrations compound I, in contrast, completely repressed major regulators in the NFκB activation pathway. JNKs are activated by a variety of environmental stresses responsible for AP-1 activation through c-Jun phosphorylation. […]
# [3] = system: p65/p50; assay: Nuclear translocation of p65/p50, immunoblot of nuclear and cytoplasmic extracts; conditions: compound I pretreatment, HEK293
# Procedure: as §1
# Nuclear translocation of endogenous p65/p50 and RelB/p52 heterodimers were monitored The activation of heterodimers p65/p50 and RelB/p52 occurs by distinct pathways dependent on IKKβ or IKKα catalytic activity. Repression of IKKβ would be expected to influence nuclear translocation of p65/p50 while repression of IKKα would influence processing of p100 to p52. […] However translocation of RelB is only dependent on IKKα for processing of its dimer partner p52 from p100. […]
# [4] = system: MCF-7, T47D, and MDA-MB-231 breast cancer cells; assay: XTT assay in breast cancer cells; conditions: 10 μM
# Procedure: In order to evaluate the potential therapeutic activity of the compound, tests for the biological activity of compound I were performed. The compound is non-toxic to MCF-7, T47D, and MDA-MB-231 breast cancer cells as estimated by XTT assay at 10 μM. To determine the effects of compound I on invasion by breast cancer cell lines, a matrigel invasion assay was used. The levels of phosphorylated IκBα were confirmed in TPA treated ER-positive (MCF-7 and T47D) and ER-negative (MDA-MB-231) breast cancer cell lines and compared the levels to those after pretreatment with compound I. Although induced levels of phosphorylated IκBα varied with the cell line, IκBα phosphorylation was eliminated by compound I treatment in all three breast cancer cell lines. Compound I also produced no effect on the estrogen receptor activity in the ER-positive breast cancer cells using ERE promoter luciferase reporter assay. Invasion capacity of breast cancer cells was increased by TPA stimulation compared to DMSO treated vehicle control. […] Following anchorage-independent colony induction in TPA-treated cells without or with compound I, colonies were lysed and measured with CyQuant GR Dye to detect DNA by fluorescence plate reader as a measure of colony count. Total transformed colony numbers were calculated from RFU and cell dose curve of JB6 cells. […]
structure (smiles),measurement,setting,value
"Cc1cc(N)ccc1N=Nc1ccc(S(=O)(=O)CCOS(=O)(=O)O)cc1 [compound I, 2-(4-((4-amino-2-methylphenyl)diazenyl)phenylsulfonyl)ethyl hydrogen sulfate]",Expression of p100,[1],inhibited; also recorded: reduced
same,Processing of p100 to nuclear p52,[1],not inhibited; also recorded: did not inhibit
same,TPA-induced nuclear translocation of RelB,[1]; compound I pretreatment,remarkably repressed
same,TPA-induced phosphorylation of endogenous ERK 1/2 (p42/44),[2],no repression
same,TPA-induced nuclear translocation of p65 (RelA),[3],remarkably repressed; also recorded: interception
same,Toxicity estimated by XTT assay,[4],non-toxic
